According to patent publication US20110028398A1, “METHODS FOR TREATING AND LIMITING FIBROTIC DISORDERS AND KELOIDS” (The Arizona Board of Regents, a body corporate acting for …, priority 2006, published 2011):

Assays:
[1] = test system: CTGF expression in renal fibroblasts; conditions: Ott et al., 2003; cited from earlier work
[2] = test system: CTGF expression in human keloid fibroblasts; assay: TGF-β1-induced CTGF expression, Western blot densitometry related to GAPDH; assay type: cell-based
Procedure: Fibroblast culture: Human keloid fibroblasts were grown in 10 cm^2 dishes to 70% confluence in DMEM with 10% FBS and additional penicillin and streptomycin (1%), at 37° C. and 10% CO2. Cells were serum starved in DMEM containing 0.5% FBS for 48 h before the experiment. At the start of the assay, fresh media was added to the dishes, and cells were either untreated (control) or treated with TGF-β1 (doses ranging from 0.6 to 5 ng/mL), P20 phosphopeptide (doses ranging from 50-200 μM), forskolin (FSK, 10 μM) or SNAP (500 μM) for 24 h. To verify the influence of serum starvation, we also had cells in 10% FBS containing medium (control high serum).
Western blot analysis: At the end of the experiment, cells were rinsed with PBS, and homogenized using UDC buffer. Lysates were mixed, centrifuged (6000×g) for 20 min, and the supernatant was used for determination of CTGF and collagen expression. Samples (20 μg of protein) were loaded on 15 or 10% SDS-PAGE gels, and the proteins were electrophoretically transferred to Immobilon membranes. […] Protein-antibody complexes were visualized using the Odyssey direct infrared fluorescence imaging system (Li-Cor, Lincoln, Nebr.). […]
P20 treatment and CTGF expression: Human keloid fibroblasts were serum-starved in DMEM medium containing 0.5% FBS for 48 hours, stimulated with TGF-beta1 doses ranging from 1.2 to 5 ng/mL and concomitantly treated with the P20 phosphopeptide (50, 100 or 200 μM) for 24 hours. Western blot bands were quantified by densitometry, and CTGF expression was related to GAPDH expression to correct for loading differences. […]
Treatment with compounds that elevate cAMP and cGMP: We next evaluated the influence of compounds that elevate cAMP (Forskolin, FSK) or cGMP (SNAP) on CTGF expression in keloid fibroblasts. […] Western blot bands were quantified by densitometry, and CTGF expression was related to GAPDH expression to correct for loading differences. […]

Question: With latrunculin as the molecule, how does the CTGF expression [1] read?
Answer: decreased

Question: For `CC(=O)N[C@@H](C(=O)O)C(C)(C)SN=O` (racemic) [SNAP], which “decrease of CTGF expression” value ([2]; TGF-β1-stimulated cells, SNAP 500 μM) is on record?
Answer: did not decrease

Question: And the “CTGF expression compared to untreated (control) cells” value ([2]; non-stimulated cells, SNAP 500 μM, p<0.05)?
Answer: two-time increase

Question: For `C=C[C@@]1(C)CC(=O)[C@]2(O)[C@@]3(C)[C@@H](O)CCC(C)(C)[C@@H]3[C@H](O)[C@H](OC(C)=O)[C@@]2(C)O1` [FSK, forskolin], which “decrease of CTGF expression” value ([2]; TGF-β1-stimulated fibroblasts (2.5 ng/mL), FSK 10 μM, 24 h) is on record?
Answer: ~50%
